pIC50: −log10 of the molar value. Where “and” joins values, the source holds several entries; their conditions need not be identical. Equal values may be shown once.
Experiments:
[1] = target: T1, Fibroblast growth factor 2 (Homo sapiens, UniProt P09038); test: Inhibition of Fibroblast growth factor 2 binding to heparin-albumin in ELISA
[2] = target: T1, Fibroblast growth factor 2; test: 25% inhibition of FGF-2 binding to heparin-albumin by ELISA
[3] = target: T1, Fibroblast growth factor 2; test: 24% inhibition of FGF-2 binding to heparin-albumin by ELISA
[4] = target: T1, Fibroblast growth factor 2; test: 23% inhibition of FGF-2 binding to heparin-albumin by ELISA

T1 sequence (P09038 143-288 limits assumed): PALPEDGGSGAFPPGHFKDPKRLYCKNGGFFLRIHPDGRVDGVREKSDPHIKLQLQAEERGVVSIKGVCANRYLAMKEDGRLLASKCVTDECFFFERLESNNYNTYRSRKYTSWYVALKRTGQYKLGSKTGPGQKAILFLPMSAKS

| Imax [1] | pIC50 [2] | pIC50 [3] | pIC50 [4] | Compound |
| --- | --- | --- | --- | --- |
| 45% |  |  |  | O=C(NC1OC(C(=O)O)C(O)C(O)C1O)c1ccncc1 (stereo not given) |
| 39% | 4.48 |  |  | O=C(NC1OC(C(=O)O)C(O)C(O)C1O)c1ccc(F)c(F)c1 (stereo not given) |
| 24% |  | 7.60 |  | O=C(COc1ccc(Cl)cc1Cl)NC1OC(C(=O)O)C(O)C(O)C1O (stereo not given) |
| 25% | > 6.50 and 6.47 |  |  | O=C(O)[C@@H]1O[C@@H](OCCN2C(=O)CCC2=O)[C@@H](O)[C@@H](O)[C@@H]1O |
| 23% |  |  | 6.82 | COc1cc(C(=O)NC2OC(C(=O)O)C(O)C(O)C2O)cc(OC)c1OC (stereo not given) |
| 40% |  |  |  | O=C(NC1OC(C(=O)O)C(O)C(O)C1O)c1cccs1 (stereo not given) |
